The nature of data set [1]: Toxicity assay (LD50) in mice. The conditions noted are these: mouse, in vivo. The procedure: (§1) The LD₅₀ value was in excess of 750 mg/kg in both species.
The nature of data set [2]: Toxicity assay (LD50) in rats. As to conditions: rat, in vivo. The procedure:
as §1

For data set [3], the system named is feline leukaemia virus (FeLV). As to the kind of experiment: In vitro anti-feline leukaemia virus activity, indirect fluorescent antigen test in FLF-3 cells. In kind it is cell-based, feline embryo lung fibroblasts (FLF-3). The conditions noted are these: 3 days incubation at 37°C. The method, then: (§2) • (i) In Vitro Activity Susceptible feline embryo lung fibroblasts (FLF-3) were seeded onto multiwell slides (10⁵ cells/ml, 0.05ml/well) with Dulbecco-modified Eagle's essential medium (DME) and incubated at 37°C overnight. […] Concentrations were […]. After 3 days incubation at 37°C, the cultures were assayed by the indirect fluorescent antigen test for the production of FeLV. […] Two cats (a) received 15mg/kg/day, three (b) received 30mg/kg/day and another two (c) received 45mg/kg/day. All doses were administered as three equal doses daily. Of cats (a), only one responded to treatment at all, showing a 10% decrease in FeLV⁺ white blood cells (wbc's). Cats (b) (after 6 weeks) all responded to treatment showing a 10% and 90% drop in Fel_V⁺ wbc's. […] All measurements were taken after 3 weeks therapy, unless otherwise stated.

Data set [4] has as its system FeLV. As to the kind of experiment: In vivo anti-feline leukaemia virus activity in persistently infected cats. The method, then:
as §2

“And” between values parts separate entries of the source, which are not always exact repeats. Equal entries are not always repeated. Where only a bound is given, the exact number is not on record here.

A word on the LD50: it is the dose expected to kill half of the subjects tested. Low readings indicate a more toxic substance, high ones a less toxic substance. In general, inhibition refers to how much of the control response was suppressed.

`Cc1cn([C@H]2C[C@H](N=[N+]=[N-])[C@@H](CO)O2)c(=O)[nH]c1=O`: the LD50 in data set [1] and in data set [2] was more than 750 mg/kg in each case. Further, the “production of FeLV” value in data set [3] (50µM and above) was “Complete absence of FeLV”. Further, the activity entry in data set [3] (0.1µm) is on record as “no activity”. Further, the inhibition in data set [3] (1µm) is listed as 50-75%. This compound came in with an inhibition at 10 µM in data set [3] (72 h, 10µM) of 90%. Besides, in data set [4] (cats (a), intravenous 15mg/kg/day in three equal doses daily, after 3 weeks, only one of two cats responded), the “decrease in FeLV+ white blood cells (wbc's)” value came to 10%. In data set [4] (cats (b), intravenous 30mg/kg/day in three equal doses daily, after 6 weeks, individual cats, 30 mg/kg/day), the “drop in FeLV+ wbc's” value was 10% and 90% and 5%. In data set [4] (cats (b), third cat, intravenous 30mg/kg/day, after 6 weeks), the “drop in plasma levels of free FeLV” value is on record as “hundred-fold”. In addition, the “decrease in FeLV+ wbc's” value in data set [4] (cats (c), intravenous 45mg/kg/day in three equal doses daily, after 3 weeks, one of two cats) was 10%. For the same compound, the reduction in lymphadenopathy result in data set [4] (cats (c), intravenous 45mg/kg/day, after 3 weeks, one cat) is recorded as “from 2 cm to 0.5 cm”. Moreover, the response to treatment result in data set [4] (cats (c), intravenous 45mg/kg/day, after 3 weeks, the other of two cats) is on record as “no response”.

For the origin of these results see patent publication EP0199451B1, “Therapeutic nucleosides” (THE WELLCOME FOUNDATION LIMITED, priority 1985, dated 1986).
